Laboratory results as given in the supplement of paper PMC10307832.

Columns and labels:
Assay in all cases: relative viability (nuclei count vs DMSO), 5 days (fraction); higher = more cells survive
[1] = compound: O=C(Nc1cc(C(F)(F)F)cc(C(F)(F)F)c1)c1cc(Cl)ccc1O [IMD-0354] + CCNC(=O)c1noc(-c2cc(C(C)C)c(O)cc2O)c1-c1ccc(CN2CCOCC2)cc1 [Luminespib] (partner 0.01 µM)
Method in brief: (§1)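 Relative viability was taken as the ratio of nuclei in treated wells to nuclei in vehicle wells. Lung cancer cell lines in 1536-well plates received compounds by pin tool one day after seeding, either one drug alone or a fixed anchor-drug dose plus five library-drug doses (not always all listed) in √10 steps. Nuclei were counted on 4× images after 5 days of treatment, and values are medians of duplicate plates.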

[2] = compound: O=C(Nc1cc(C(F)(F)F)cc(C(F)(F)F)c1)c1cc(Cl)ccc1O [IMD-0354] + Cc1nc(NC(=O)N2CCC[C@H]2C(N)=O)sc1-c1ccnc(C(C)(C)C(F)(F)F)c1 [Alpelisib] (partner 2 µM)
Method in brief: as §1

[3] = compound: Cc1cnc(CNC(=O)c2c(=O)c3ccc(N4CCCN(C)CC4)nc3n3c2sc2ccccc23)cn1 [CX-5461] + N=C(N)NC(=N)NCCc1ccccc1 [Phenformin] (partner 250 µM)
Method in brief: as §1

[4] = compound: Cc1cnc(CNC(=O)c2c(=O)c3ccc(N4CCCN(C)CC4)nc3n3c2sc2ccccc23)cn1 [CX-5461] + CC1(C)CCC(c2ccc(Cl)cc2)=C(CN2CCN(c3ccc(C(=O)NS(=O)(=O)c4ccc(N[C@H](CCN5CCOCC5)CSc5ccccc5)c(S(=O)(=O)C(F)(F)F)c4)cc3)CC2)C1 [Navitoclax] (partner 0.5 µM)
Method in brief: as §1

Cell Line | relative viability ([1]; first compound 0.04 µM) | relative viability ([1]; first compound 0.1265 µM) | relative viability ([1]; first compound 0.4 µM) | relative viability ([1]; first compound 1.265 µM) | relative viability ([1]; first compound 4 µM) | relative viability ([2]; first compound 0.04 µM) | relative viability ([2]; first compound 0.1265 µM) | relative viability ([2]; first compound 0.4 µM) | relative viability ([2]; first compound 1.265 µM) | relative viability ([2]; first compound 4 µM) | relative viability ([3]; first compound 0.01 µM) | relative viability ([3]; first compound 0.03162 µM) | relative viability ([3]; first compound 0.1 µM) | relative viability ([3]; first compound 0.3162 µM) | relative viability ([3]; first compound 1 µM) | relative viability ([4]; first compound 0.01 µM) | relative viability ([4]; first compound 0.03162 µM) | relative viability ([4]; first compound 0.1 µM) | relative viability ([4]; first compound 0.3162 µM) | relative viability ([4]; first compound 1 µM)
201T | 1.19 | 1.04 | 0.678 | 0.638 | 0.278 | 1.02 | 1.08 | 0.683 | 1.1 | 0.351 | 0.468 | 0.431 | 0.464 | 0.441 | 0.388 | 1.18 | 1.22 | 1.21 | 1.18 | 1.19
A549 |  |  |  |  |  | 0.776 | 0.695 | 0.509 | 0.0677 | 0.0557 | 0.155 | 0.165 | 0.104 | 0.0393 | 0.0272 | 1.05 | 0.932 |  | 0.833 | 0.035
A-427 | 1.06 | 0.985 | 0.457 | 0.301 | 0.166 | 1.04 | 1.13 | 0.815 | 0.69 | 0.104 | 0.338 | 0.348 | 0.36 |  | 0.223 | 1.05 | 1.06 | 0.961 |  | 0.979
ABC-1 | 0.381 | 0.82 | 0.32 | 0.237 | 0.307 | 1.15 | 1.1 | 0.887 | 0.375 | 0.252 | 0.23 | 0.212 | 0.213 |  | 0.212 |  |  |  |  | 
BEN | 0.159 | 0.533 | 0.256 | 0.161 | 0.139 | 1.11 | 0.915 | 0.498 | 0.442 | 0.245 | 0.28 | 0.263 | 0.253 | 0.28 | 0.268 | 0.0792 | 0.0627 | 0.052 | 0.0668 | 0.066
CAL-12T | 0.432 | 0.434 | 0.338 | 0.126 | 0.172 | 1.49 | 1.31 | 0.596 | 0.267 | 0.173 | 0.643 | 0.653 | 0.328 | 0.531 | 0.35 | 1.18 | 1.25 |  | 1.05 | 0.573
COR-L23 | 0.583 | 0.53 | 0.402 | 0.115 | 0.166 | 0.728 | 0.776 | 0.427 | 0.136 | 0.164 | 0.472 | 0.431 | 0.414 | 0.426 | 0.301 | 0.966 | 0.981 | 0.786 | 0.978 | 0.417
COR-L 105 | 0.891 | 0.906 | 0.463 | 0.317 | 0.236 | 1.06 | 0.76 | 0.902 | 0.604 | 0.287 | 0.496 | 0.557 | 0.414 | 0.405 | 0.306 | 0.891 | 0.734 | 0.768 | 0.801 | 0.689
Calu-6 |  |  |  |  |  | 0.925 | 0.909 | 0.672 | 0.101 | 0.0892 |  |  |  |  |  | 0.659 | 0.872 | 0.743 | 0.852 | 0.157
ChaGo-K-1 | 0.639 | 0.566 | 0.364 | 0.223 | 0.228 |  |  |  |  |  | 0.512 | 0.527 | 0.474 | 0.299 | 0.268 | 1.32 | 0.947 | 0.752 | 0.413 | 0.618
EBC-1 |  |  |  |  |  | 0.882 | 0.788 | 0.559 | 0.174 | 0.227 |  |  |  |  |  | 0.391 | 0.374 | 0.437 | 0.416 | 0.197
EKVX | 1.05 | 0.672 | 0.783 | 0.767 | 0.117 | 0.931 | 0.992 |  | 0.73 | 0.179 | 0.231 | 0.236 | 0.186 | 0.224 | 0.24 | 1.13 | 1.03 | 0.958 |  | 0.764
EMC-BAC-2 | 1.28 | 1.13 | 0.537 | 0.651 | 0.284 | 0.796 | 0.766 | 0.448 | 0.611 | 0.25 | 0.507 | 0.518 | 0.399 | 0.299 | 0.271 | 1.17 | 1.29 | 1.21 | 1.13 | 1.14
EPLC-272H | 0.51 | 0.322 | 0.409 | 0.22 | 0.131 | 1.04 | 0.893 | 0.648 | 0.842 | 0.374 | 0.278 | 0.299 | 0.264 |  | 0.361 | 1.28 | 1.3 | 1.11 |  | 1.13
H3255 | 0.776 | 0.845 | 0.778 | 0.293 | 0.285 | 0.723 | 0.793 | 0.46 | 0.364 | 0.241 | 0.373 | 0.367 | 0.374 | 0.301 | 0.338 | 0.626 | 0.484 | 0.533 | 0.273 | 0.397
HARA | 0.863 | 0.689 | 0.37 | 0.16 | 0.125 | 0.942 | 0.724 | 0.503 | 0.141 | 0.169 | 0.416 | 0.414 | 0.48 |  | 0.353 | 1.11 | 1.23 | 1.17 | 1.08 | 1.12
HCC-15 | 0.236 | 0.257 | 0.275 | 0.104 | 0.0925 | 0.861 | 0.853 | 0.466 | 0.272 | 0.0938 | 0.514 | 0.53 | 0.372 | 0.467 | 0.163 | 0.725 | 0.773 | 0.713 | 0.717 | 0.656
HCC-44 | 0.737 | 1.1 | 0.786 | 0.311 | 0.239 | 0.857 | 0.728 | 0.379 | 0.185 | 0.134 | 0.179 | 0.205 | 0.145 | 0.229 | 0.136 | 0.931 | 1.08 | 1.09 | 0.983 | 1.02
